In ChEMBL document CHEMBL1155009, “7-Aminopyrazolo[1,5-a]pyrimidines as potent multitargeted receptor tyrosine kinase inhibitors” (J Med Chem, 2008):

Experiments:
[1] = molecular target: T1, Vascular endothelial growth factor receptor 2 (Homo sapiens, UniProt P35968)
Description: Inhibition of KDR by HTRF assay

Mus musculus [2] = assay: Inhibition of estradiol-induced uterine edema in BALB/c mouse at 10 mg/kg, po administered 30 mins prior to 17-beta-estradiol challenge after 2 hrs; conditions: read-out: INH
[3] = molecular target: T1, Vascular endothelial growth factor receptor 2; assay: Inhibition of human KDR phosphorylation expressed in mouse NIH3T3 cells by ELISA; assay type: cell-based
Mus musculus [4] = assay: Half life in CD1 mouse at 3 mg/kg, iv; assay type: ADME, organism-based; parameters: dose 3 mg/kg, route intravenous; conditions: in vivo
[5] = AUC in CD1 mouse at 3 mg/kg, iv; assay type: ADME, organism-based; parameters: dose 3 mg/kg, route intravenous; conditions: plasma
Mus musculus [6] = assay: Volume of distribution in CD1 mouse at 3 mg/kg, iv; assay type: ADME, organism-based; parameters: dose 3 mg/kg, route intravenous; conditions: in vivo
[7] = Cmax in CD1 mouse at 10 mg/kg, po; assay type: ADME, organism-based; parameters: dose 10 mg/kg, route oral; conditions: in vivo
[8] = AUC in CD1 mouse at 10 mg/kg, po; assay type: ADME, organism-based; parameters: dose 10 mg/kg, route oral; conditions: plasma
[9] = Oral bioavailability in CD1 mouse at 10 mg/kg; assay type: ADME, organism-based; conditions: in vivo

T1 sequence (P35968 whole entry): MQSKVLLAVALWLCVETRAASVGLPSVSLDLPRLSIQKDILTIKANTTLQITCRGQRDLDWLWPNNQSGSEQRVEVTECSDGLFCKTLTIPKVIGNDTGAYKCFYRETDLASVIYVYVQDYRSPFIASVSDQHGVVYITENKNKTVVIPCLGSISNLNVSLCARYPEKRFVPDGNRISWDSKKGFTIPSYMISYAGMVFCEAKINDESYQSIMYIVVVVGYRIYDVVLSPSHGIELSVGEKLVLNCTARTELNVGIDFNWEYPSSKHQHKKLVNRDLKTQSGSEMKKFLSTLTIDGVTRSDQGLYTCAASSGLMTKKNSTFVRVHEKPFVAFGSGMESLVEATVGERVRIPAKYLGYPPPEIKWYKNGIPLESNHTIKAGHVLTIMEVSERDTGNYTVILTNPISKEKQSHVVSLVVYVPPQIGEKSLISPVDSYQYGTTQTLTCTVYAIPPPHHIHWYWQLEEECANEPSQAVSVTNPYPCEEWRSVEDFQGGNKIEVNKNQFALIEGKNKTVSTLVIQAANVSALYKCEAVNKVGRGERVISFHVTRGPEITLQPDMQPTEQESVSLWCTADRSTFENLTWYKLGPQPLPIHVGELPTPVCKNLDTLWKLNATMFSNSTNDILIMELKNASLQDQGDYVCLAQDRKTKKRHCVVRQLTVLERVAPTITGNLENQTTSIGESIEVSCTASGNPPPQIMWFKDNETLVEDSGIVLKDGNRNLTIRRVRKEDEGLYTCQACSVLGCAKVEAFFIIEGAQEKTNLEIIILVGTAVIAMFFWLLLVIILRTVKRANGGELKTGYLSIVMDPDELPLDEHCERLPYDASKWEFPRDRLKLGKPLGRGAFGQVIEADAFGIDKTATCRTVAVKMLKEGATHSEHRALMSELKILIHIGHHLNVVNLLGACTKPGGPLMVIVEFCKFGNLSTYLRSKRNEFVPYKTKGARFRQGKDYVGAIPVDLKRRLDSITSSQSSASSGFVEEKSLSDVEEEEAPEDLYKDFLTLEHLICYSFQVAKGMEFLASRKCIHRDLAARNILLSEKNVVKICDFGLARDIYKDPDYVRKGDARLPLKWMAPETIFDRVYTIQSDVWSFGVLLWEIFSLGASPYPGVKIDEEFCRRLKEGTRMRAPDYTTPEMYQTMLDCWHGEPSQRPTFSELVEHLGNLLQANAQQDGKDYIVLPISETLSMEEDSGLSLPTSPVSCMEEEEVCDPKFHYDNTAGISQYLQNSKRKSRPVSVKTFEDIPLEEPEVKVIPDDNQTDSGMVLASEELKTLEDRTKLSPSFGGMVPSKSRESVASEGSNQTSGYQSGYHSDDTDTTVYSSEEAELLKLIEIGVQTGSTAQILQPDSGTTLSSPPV

SMILES	IC50 [1] [nM]	other results
COc1ccc(-c2cnc3c(Br)cnn3c2N)cc1	> 12500	–
Cn1cc(-c2ccn3c(N)c(-c4ccc(NC(=O)Nc5cccc(Cl)c5)cc4)cnc23)cn1	–	inhibition in vivo at 10 mg/kg (Mus musculus [2]): 27%
Cn1cc(-c2ccn3c(N)c(-c4ccc(NC(=O)Nc5ccc(F)c(C(F)(F)F)c5)cc4)cnc23)cn1	–	inhibition in vivo at 10 mg/kg (Mus musculus [2]): < 15%
Cc1cccc(NC(=O)Nc2ccc(-c3cnc4cc(-c5ccccc5)nn4c3N)cc2)c1	> 12500	–
Cc1cccc(NC(=O)Nc2ccc(-c3cnc4c(C(=O)O)cnn4c3N)cc2)c1	2000	–
Cc1cccc(NC(=O)Nc2ccc(-c3cnc4c(C(=O)N5CCN(C)CC5)cnn4c3N)cc2)c1	790	–
Nc1ccc(-c2cnc3c(Br)cnn3c2N)cc1	> 12500	–
Cc1cccc(NC(=O)Nc2cccc(-c3cnc4ccnn4c3N)c2)c1	6600	–
Cn1cc(-c2ccn3c(N)c(-c4ccc(NC(=O)Nc5cc(C(F)(F)F)ccc5F)cc4)cnc23)cn1	–	inhibition in vivo at 10 mg/kg (Mus musculus [2]): 45%
Nc1c(-c2ccc(NC(=O)Nc3ccccc3)cc2)cnc2c(Br)cnn12	1600	–

Further lines, with some results ahead:

IC50 [1] [nM]	SMILES	other results
> 12500	Nc1c(-c2ccccc2)cnc2c(Br)cnn12	–
44	Nc1c(-c2ccc(NC(=O)Nc3cccc(Cl)c3)cc2)cnc2ccnn12	–
74	Cc1ccc(F)c(NC(=O)Nc2ccc(-c3cnc4ccnn4c3N)cc2)c1	–
6100	COc1ccc(-c2cnc3c(-c4ccsc4)cnn3c2N)cc1	–
930	Cc1cccc(NC(=O)Nc2ccc(-c3cnc4c(C#N)cnn4c3N)cc2)c1	–
500	CCN(CC)CCNC(=O)c1cnn2c(N)c(-c3ccc(NC(=O)Nc4cccc(C)c4)cc3)cnc12	–
3500	Cc1cccc(NC(=O)Nc2ccc(-c3cnc4cc(C)nn4c3N)cc2)c1	–
> 12500	Cc1ccccc1NC(=O)Nc1ccc(-c2cnc3c(Br)cnn3c2N)cc1	–
810	Cc1ccc(NC(=O)Nc2ccc(-c3cnc4c(Br)cnn4c3N)cc2)cc1	–
> 12500	Cc1cccc(NC(=O)Nc2ccc(-c3cnc4c(Br)cnn4c3)cc2)c1	–
4	Cc1cccc(NC(=O)Nc2ccc(-c3cnc4c(-c5cnn(C)c5)cnn4c3N)cc2)c1	IC50 [3]: 0.7 nM; inhibition in vivo at 10 mg/kg (Mus musculus [2]): 49%; t1/2 (Mus musculus [4]): 15 min; AUC [5]: 1800 ng·h/mL; Vd (Mus musculus [6]): 1.4 L/kg; Cmax [7]: 360 nM; AUC [8]: 810 ng·h/mL; bioavailability [9]: 14%
> 12500	Nc1c(-c2ccc(NC(=O)c3ccccc3)cc2)cnc2c(Br)cnn12	–
100	CNC(=O)c1cnn2c(N)c(-c3ccc(NC(=O)Nc4cccc(C)c4)cc3)cnc12	–
10000	Cc1cccc(NC(=S)Nc2ccc(-c3cnc4ccnn4c3N)cc2)c1	–
